Assays:
[1] = test system: HIV-1 TAR RNA; assay: RNA cleavage reaction, HIV-1 TAR substrate; format: biochemical; details: 40 μM, not bound to RNA-binding protein (control)
Experimental: The above described polypeptides were tested for their ability to cleave RNA substrates which contained cognate binding sites. Typically, RNA target molecules containing the binding sites were 5'-end-labeled, purified on denaturing polyacrylamide gels, and annealed for use as substrates for cleavage (Example 2). A typical cleavage reaction contained 10^3 cpm of end-labeled RNA and 40-100 ng of polypeptide. Example 4A describes RNA cleavage reactions utilizing the TAT24C-phen polypeptide. The target RNA was incubated with TAT24C-phen at 25° C. for 10 min before the cleavage was initiated by adding CuSO4 and mercaptopropionic acid. After incubating for a given period of time, the reaction was stopped by the addition of 2,9-dimethyl-1,10-phenanthroline. RNAs were then isolated and analyzed on denaturing 15% sequencing gels. […] This is an expected site of cleavage based on binding of the polypeptide at the three-nucleotide bulge. A possible secondary cleavage site may be due to flexibility of the phenothroline-containing protein of the polypeptide, allowing it to reach to stem on the other side of the binding site.
Cleavage reactions using the polypeptide-cleaving reagents of the present invention were typically performed as follows. […]
RNAs from all reactions were ethanol precipitated and analyzed on a denaturing (8.3 M urea) 15% polyacrylamide gel. […]

[2] = test system: wild-type TAR (wt-TAR) site; details: RNA containing the TAR site; cited from earlier work
[3] = test system: HIV-1 LTR-linked gene expression; details: TAT protein taken up by cells; cited from earlier work

Cu(II)-1,10-phenanthroline
cleavage pattern on HIV-1 TAR by free Cu(II)-phenanthroline [1]: cleaves everywhere, but the unpaired bases at the loop (especially G32) and the bulge are most reactive

synthetic 14-residue polypeptide: synthetic polypeptide spanning the basic region, amino acid residues 48-61 of the TAT protein (GRKKRRQRRRAHQN; UniProt P04608 48-61, looked up, fragment)
binding to TAR-RNA (in words) [2]: bound TAR-RNA as well

B1: TAT protein: HIV-1 encoded 86 amino acid transactivator protein (protein)
chain: MEPVDPRLEPWKHPGSQPKTACTNCYCKKCCFHCQVCFITKALGISYGRKKRRQRRRPPQGSQTHQVSLSKQPTSQSRGDPTGPKE
effect on HIV-1 LTR-linked gene expression [3]: specifically activates HIV-1 LTR-linked gene expression
